Measurements: ChEMBL document CHEMBL5625242, “Discovery of brain permeable 2-Azabicyclo[2.2.2]octane sulfonamides as a novel class of presenilin-1 selective γ-secretase inhibitors” (Eur J Med Chem, 2023)
Values after ≈ are worked out from the molar mass of the structure shown. One block for each compound: values may come before it.

Tests used:
Homo sapiens [1] = species on record: Homo sapiens; assay: Selectivity ratio of IC50 for human PSEN2/APH1A expressed in MEF cells with Psen1/2 double knockout/Aph1ABC triple knockout to IC50 for human PSEN1/APH1B expressed in MEF cells with Psen1/2 double knockout/Aph1ABC triple knockout; assay type: cell-based
Homo sapiens [2] = species on record: Homo sapiens; assay: Selectivity ratio of IC50 for human PSEN2/APH1B expressed in MEF cells with Psen1/2 double knockout/Aph1ABC triple knockout to IC50 for human PSEN1/APH1B expressed in MEF cells with Psen1/2 double knockout/Aph1ABC triple knockout; assay type: cell-based
Homo sapiens [3] = species on record: Homo sapiens; assay: Selectivity ratio of IC50 for human PSEN1/APH1A expressed in MEF cells with Psen1/2 double knockout/Aph1ABC triple knockout to IC50 for human PSEN1/APH1B expressed in MEF cells with Psen1/2 double knockout/Aph1ABC triple knockout; assay type: cell-based
MEF = assay: Inhibition of human PSEN1/APH1B expressed in MEF cells with Psen1/2 double knockout/Aph1ABC triple knockout at 10 uM by ELISA relative to control; assay type: cell-based
[4] = Inhibition of human PSEN1/APH1A expressed in MEF cells with Psen1/2 double knockout/Aph1ABC triple knockout by ELISA; assay type: cell-based
[5] = Inhibition of human PSEN1/APH1B expressed in MEF cells with Psen1/2 double knockout/Aph1ABC triple knockout by ELISA; assay type: cell-based
[6] = Inhibition of human PSEN2/APH1A expressed in MEF cells with Psen1/2 double knockout/Aph1ABC triple knockout by ELISA; assay type: cell-based
[7] = Inhibition of human PSEN2/APH1B expressed in MEF cells with Psen1/2 double knockout/Aph1ABC triple knockout by ELISA; assay type: cell-based
Cytochrome P450 2D6 = Cytochrome P450 2D6 (Homo sapiens, UniProt P10635); assay: Inhibition of human CYP2D6 using dextrometorphan as substrate by fluorescence based assay; assay type: ADME
Cytochrome P450 2D6, sequence (P10635 whole entry): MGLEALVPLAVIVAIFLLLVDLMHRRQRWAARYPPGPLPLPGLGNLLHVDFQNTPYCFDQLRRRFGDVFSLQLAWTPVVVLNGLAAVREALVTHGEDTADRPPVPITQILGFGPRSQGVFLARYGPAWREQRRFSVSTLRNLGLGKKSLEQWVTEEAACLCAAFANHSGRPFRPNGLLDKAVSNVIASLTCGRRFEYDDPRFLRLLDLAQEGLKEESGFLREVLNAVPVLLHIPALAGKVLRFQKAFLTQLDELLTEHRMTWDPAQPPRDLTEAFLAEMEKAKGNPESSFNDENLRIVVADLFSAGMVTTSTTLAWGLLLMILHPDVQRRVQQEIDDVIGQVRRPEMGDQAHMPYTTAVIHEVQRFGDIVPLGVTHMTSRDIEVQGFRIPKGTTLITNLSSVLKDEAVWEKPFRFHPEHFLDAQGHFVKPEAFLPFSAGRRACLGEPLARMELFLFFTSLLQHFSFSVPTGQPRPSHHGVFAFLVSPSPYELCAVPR

[8] = Metabolic stability in human liver microsomes assessed as intrinsic clearance; assay type: ADME, Microsome; settings: microsomes
[9] = Metabolic stability in mouse liver microsomes assessed as intrinsic clearance; assay type: ADME, Microsome; settings: microsomes
Cytochrome P450 3A4 = Cytochrome P450 3A4 (Homo sapiens, UniProt P08684); assay: Inhibition of human CYP3A4 using midazolam as substrate by fluorescence based assay; assay type: ADME
Cytochrome P450 3A4, sequence (P08684 whole entry): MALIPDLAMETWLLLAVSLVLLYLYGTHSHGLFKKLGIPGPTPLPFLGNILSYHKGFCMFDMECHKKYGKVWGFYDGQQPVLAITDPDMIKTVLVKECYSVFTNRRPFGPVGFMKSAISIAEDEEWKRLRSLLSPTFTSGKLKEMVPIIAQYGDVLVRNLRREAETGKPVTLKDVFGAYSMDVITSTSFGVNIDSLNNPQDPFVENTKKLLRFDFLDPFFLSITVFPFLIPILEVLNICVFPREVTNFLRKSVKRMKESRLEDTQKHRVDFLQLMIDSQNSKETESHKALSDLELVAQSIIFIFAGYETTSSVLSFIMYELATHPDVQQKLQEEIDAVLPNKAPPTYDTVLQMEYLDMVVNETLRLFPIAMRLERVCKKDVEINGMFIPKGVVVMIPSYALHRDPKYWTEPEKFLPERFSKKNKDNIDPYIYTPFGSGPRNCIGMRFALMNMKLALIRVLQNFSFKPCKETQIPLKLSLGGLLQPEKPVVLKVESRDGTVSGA

Cytochrome P450 2C8 = molecular target: T1, Cytochrome P450 2C8 (Homo sapiens, UniProt P10632); assay: Inhibition of human CYP2C8 using amodiaquine as substrate by fluorescence based assay; assay type: ADME
T1 sequence (P10632 whole entry): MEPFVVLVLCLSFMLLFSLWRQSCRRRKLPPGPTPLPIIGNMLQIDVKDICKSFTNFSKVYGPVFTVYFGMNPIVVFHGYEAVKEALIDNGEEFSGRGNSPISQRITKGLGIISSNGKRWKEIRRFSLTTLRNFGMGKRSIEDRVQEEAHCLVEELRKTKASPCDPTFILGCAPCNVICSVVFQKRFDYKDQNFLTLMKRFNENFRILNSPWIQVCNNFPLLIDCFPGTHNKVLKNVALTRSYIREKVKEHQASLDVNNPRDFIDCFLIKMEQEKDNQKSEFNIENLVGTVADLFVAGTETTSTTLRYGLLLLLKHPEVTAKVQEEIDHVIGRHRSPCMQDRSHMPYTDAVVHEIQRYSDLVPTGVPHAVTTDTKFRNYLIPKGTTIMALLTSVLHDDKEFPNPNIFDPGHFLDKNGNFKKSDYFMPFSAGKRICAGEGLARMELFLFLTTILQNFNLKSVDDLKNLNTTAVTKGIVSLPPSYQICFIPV

Cytochrome P450 2C9 = Cytochrome P450 2C9 (Homo sapiens, UniProt P11712); assay: Inhibition of human CYP2C9 using tolbutamide as substrate by fluorescence based assay; assay type: ADME
Cytochrome P450 2C9, sequence (P11712 whole entry): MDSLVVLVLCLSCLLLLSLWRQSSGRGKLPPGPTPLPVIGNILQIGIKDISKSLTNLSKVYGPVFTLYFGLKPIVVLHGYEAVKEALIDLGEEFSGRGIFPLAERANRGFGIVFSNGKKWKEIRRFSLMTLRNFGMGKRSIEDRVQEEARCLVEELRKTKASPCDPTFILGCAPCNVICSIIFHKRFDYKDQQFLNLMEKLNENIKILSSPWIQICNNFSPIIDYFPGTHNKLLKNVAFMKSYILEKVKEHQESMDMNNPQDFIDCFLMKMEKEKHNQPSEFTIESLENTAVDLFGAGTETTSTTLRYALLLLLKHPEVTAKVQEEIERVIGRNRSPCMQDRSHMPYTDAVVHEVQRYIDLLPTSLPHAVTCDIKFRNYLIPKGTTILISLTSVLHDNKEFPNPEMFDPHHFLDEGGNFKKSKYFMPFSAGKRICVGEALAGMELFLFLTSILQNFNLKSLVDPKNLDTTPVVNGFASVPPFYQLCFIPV

Cytochrome P450 2C19 = Cytochrome P450 2C19 (Homo sapiens, UniProt P33261); assay: Inhibition of human CYP2C19 using S-mephenytoin as substrate by fluorescence based assay; assay type: ADME
Cytochrome P450 2C19, sequence (P33261 whole entry): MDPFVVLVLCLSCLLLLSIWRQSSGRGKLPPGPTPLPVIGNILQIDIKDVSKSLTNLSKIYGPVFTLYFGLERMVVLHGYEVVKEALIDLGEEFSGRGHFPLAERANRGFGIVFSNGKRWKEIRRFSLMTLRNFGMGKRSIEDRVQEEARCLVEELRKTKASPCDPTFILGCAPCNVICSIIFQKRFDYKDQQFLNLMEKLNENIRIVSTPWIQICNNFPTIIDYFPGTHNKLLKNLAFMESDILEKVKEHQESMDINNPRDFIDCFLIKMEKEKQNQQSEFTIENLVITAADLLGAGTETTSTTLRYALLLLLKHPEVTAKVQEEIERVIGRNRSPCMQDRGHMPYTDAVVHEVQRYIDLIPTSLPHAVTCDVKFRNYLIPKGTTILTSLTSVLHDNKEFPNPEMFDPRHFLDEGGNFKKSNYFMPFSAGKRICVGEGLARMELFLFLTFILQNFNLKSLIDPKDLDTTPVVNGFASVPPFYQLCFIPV

Cytochrome P450 1A2 = molecular target: T2, Cytochrome P450 1A2 (Homo sapiens, UniProt P05177); assay: Inhibition of human CYP1A2 using phenacetin as substrate by fluorescence based assay; assay type: ADME
T2 sequence (P05177 whole entry): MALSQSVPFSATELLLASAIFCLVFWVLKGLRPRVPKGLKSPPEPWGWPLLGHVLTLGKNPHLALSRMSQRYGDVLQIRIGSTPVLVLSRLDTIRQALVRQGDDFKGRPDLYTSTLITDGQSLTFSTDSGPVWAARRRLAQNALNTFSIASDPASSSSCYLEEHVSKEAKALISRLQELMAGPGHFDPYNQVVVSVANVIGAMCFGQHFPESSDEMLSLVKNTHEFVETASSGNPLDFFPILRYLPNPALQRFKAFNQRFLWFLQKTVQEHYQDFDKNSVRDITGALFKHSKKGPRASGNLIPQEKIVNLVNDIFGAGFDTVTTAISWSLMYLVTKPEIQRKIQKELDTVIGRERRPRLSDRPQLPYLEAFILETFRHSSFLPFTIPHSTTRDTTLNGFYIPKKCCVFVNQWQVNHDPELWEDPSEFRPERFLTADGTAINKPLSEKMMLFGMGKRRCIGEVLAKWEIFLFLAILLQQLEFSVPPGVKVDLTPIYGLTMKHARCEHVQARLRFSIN

[10] = Protein binding in human plasma assessed as free fraction at 5 uM incubated for 4.5 hrs by HPLC analysis; assay type: ADME, cell-free
[11] = Protein binding in mouse plasma assessed as free fraction at 5 uM incubated for 4.5 hrs by HPLC analysis; assay type: ADME, cell-free
[12] = Free fraction in rat brain homogenate at 5 uM incubated for 5 hrs by HPLC-MS/MS analysis; assay type: ADME, tissue-based
[13] = Kinetic solubility of compound at pH 2; assay type: physicochemical; settings: buffer, read-out: Kinetic_solubility
[14] = Kinetic solubility of compound at pH 4; assay type: physicochemical; settings: buffer, read-out: Kinetic_solubility
[15] = Kinetic solubility of compound at pH 7.4; assay type: physicochemical; settings: buffer, read-out: Kinetic_solubility
human MDR1 [16] = assay: Apparent permeability across apical to basal side in MDCK cells transfected with human MDR1 at 5 uM by LC-MS/MS analysis; assay type: ADME, cell-based, Canis lupus familiaris; settings: dog
human MDR1 [17] = assay: Efflux ratio of apparent permeability basal to apical side over apical to basal side in MDCK cells transfected with human MDR1 at 5 uM by LC-MS/MS analysis; assay type: ADME, cell-based, Canis lupus familiaris; settings: dog
[18] = molecular target: Voltage-gated inwardly rectifying potassium channel KCNH2 (Homo sapiens, UniProt Q12809); assay: Inhibition of hERG; assay type: toxicity
Voltage-gated inwardly rectifying potassium channel KCNH2, sequence (Q12809 whole entry): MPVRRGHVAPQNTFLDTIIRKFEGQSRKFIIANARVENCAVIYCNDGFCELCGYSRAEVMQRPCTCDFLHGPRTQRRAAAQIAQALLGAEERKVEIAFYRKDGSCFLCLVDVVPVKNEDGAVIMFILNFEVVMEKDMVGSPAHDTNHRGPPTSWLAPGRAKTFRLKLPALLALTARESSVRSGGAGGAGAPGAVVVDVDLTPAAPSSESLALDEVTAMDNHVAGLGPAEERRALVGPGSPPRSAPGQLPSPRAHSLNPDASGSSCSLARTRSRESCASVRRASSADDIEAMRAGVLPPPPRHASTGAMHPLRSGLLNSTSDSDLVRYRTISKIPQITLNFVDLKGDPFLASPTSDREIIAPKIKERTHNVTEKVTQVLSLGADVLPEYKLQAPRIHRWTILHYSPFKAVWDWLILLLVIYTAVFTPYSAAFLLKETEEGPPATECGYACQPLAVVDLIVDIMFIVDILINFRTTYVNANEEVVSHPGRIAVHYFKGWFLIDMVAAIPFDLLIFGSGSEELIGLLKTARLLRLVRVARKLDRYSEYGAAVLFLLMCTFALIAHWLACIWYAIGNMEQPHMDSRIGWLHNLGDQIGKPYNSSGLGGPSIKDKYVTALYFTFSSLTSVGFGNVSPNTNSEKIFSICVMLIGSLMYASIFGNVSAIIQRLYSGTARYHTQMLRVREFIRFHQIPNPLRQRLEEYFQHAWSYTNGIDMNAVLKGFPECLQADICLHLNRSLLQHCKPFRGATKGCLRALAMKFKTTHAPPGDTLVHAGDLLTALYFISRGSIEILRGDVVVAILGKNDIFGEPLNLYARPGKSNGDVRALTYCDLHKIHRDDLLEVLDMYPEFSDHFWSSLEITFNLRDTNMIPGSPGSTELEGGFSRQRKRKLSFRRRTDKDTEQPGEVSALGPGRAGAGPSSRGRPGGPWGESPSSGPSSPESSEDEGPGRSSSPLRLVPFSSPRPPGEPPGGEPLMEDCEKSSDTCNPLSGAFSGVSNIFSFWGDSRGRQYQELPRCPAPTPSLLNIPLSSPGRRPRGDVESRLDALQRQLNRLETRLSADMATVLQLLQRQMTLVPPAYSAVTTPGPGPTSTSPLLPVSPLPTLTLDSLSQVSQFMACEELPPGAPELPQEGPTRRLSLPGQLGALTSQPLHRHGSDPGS

calcium channel = assay: Inhibition of rat calcium channel; assay type: toxicity
sodium channel = assay: Inhibition of rat sodium channel; assay type: toxicity
[19] = Drug concentration in Swiss mouse plasma at 2.5 mg/kg, iv measured at 5 mins post-dose; assay type: ADME, organism-based
[20] = Drug concentration in Swiss mouse brain at 2.5 mg/kg, iv measured at 5 mins post-dose; assay type: ADME, organism-based; settings: read-out: Ct
[21] = Ratio of drug concentration in brain to plasma of Swiss mouse at 2.5 mg/kg, iv measured at 5 mins post-dose; assay type: ADME, organism-based; settings: read-out: BPR
[22] = Unbound drug concentration in Swiss mouse plasma at 2.5 mg/kg, iv measured at 5 mins post-dose; assay type: ADME, organism-based; settings: in vivo
[23] = Ratio of unbound drug concentration in brain to plasma in Swiss mouse at 2.5 mg/kg, iv measured at 5 mins post-dose; assay type: ADME, organism-based; settings: read-out: K(p,uu,brain)

SMILES: O=S(=O)(c1ccc(Cl)cc1)N1[C@H]2CC[C@@H]([C@H]1c1ccc(C(F)(F)F)cc1)[C@@H](O)C2 (racemic)
Ratio IC50 (Homo sapiens [1]): > 390 | Ratio IC50 (Homo sapiens [2]): > 330 | Ratio IC50 (Homo sapiens [3]): > 5

SMILES: O=C1C[C@@H]2CC[C@H]1[C@H](c1cc(F)ccc1F)N2S(=O)(=O)c1ccc(Cl)cc1
inhibition (MEF): 45%

SMILES: N#Cc1ccc([C@@H]2[C@@H]3CC[C@@H](C[C@@H]3O)N2S(=O)(=O)c2ccc(Cl)cc2)c(F)c1 (racemic)
IC50 [4]: 6.9 nM | IC50 [5]: 2.4 nM | IC50 [6]: 147 nM | IC50 [7]: 257 nM | Ratio IC50 (Homo sapiens [1]): 40 | Ratio IC50 (Homo sapiens [2]): 100 | Ratio IC50 (Homo sapiens [3]): 2

SMILES: O=C1NCCCC[C@H]1N(Cc1ccc(Br)cc1)S(=O)(=O)c1ccc(Cl)cc1
IC50 [4]: 38.3 nM | IC50 [5]: 24.5 nM | IC50 [6]: 4110 nM | IC50 [7]: 1700 nM | Ratio IC50 (Homo sapiens [1]): > 60 | Ratio IC50 (Homo sapiens [2]): > 60

SMILES: N#Cc1ccc(S(=O)(=O)N2[C@H]3CC[C@H](C(=O)C3)[C@H]2c2ccc(C(F)(F)F)cc2)cc1 (racemic)
IC50 [4]: > 10000 nM | IC50 [5]: 1550 nM | IC50 [6]: > 10000 nM | IC50 [7]: > 10000 nM | Ratio IC50 (Homo sapiens [3]): > 40

SMILES: O=S(=O)(c1ccc(Cl)cc1)N1[C@H]2CC[C@@H]([C@H]1c1ccccc1Cl)[C@@H](O)C2 (racemic)
IC50 [4]: 12 nM | IC50 [5]: 3 nM | IC50 [6]: 131 nM | IC50 [7]: 214 nM | Ratio IC50 (Homo sapiens [1]): 40 | Ratio IC50 (Homo sapiens [2]): 100 | Ratio IC50 (Homo sapiens [3]): 2

Further lines, with some results ahead:

IC50 [4]: 72 nM | IC50 [5]: 12.9 nM | IC50 [6]: 1230 nM | IC50 [7]: 776 nM | IC50 (Cytochrome P450 2D6): > 10000 nM | CLH [8]: 78.4 µL/min/mg | CLH [9]: 110 µL/min/mg | IC50 (Cytochrome P450 3A4): > 10000 nM | IC50 (Cytochrome P450 2C8): > 10000 nM | IC50 (Cytochrome P450 2C9): > 10000 nM | IC50 (Cytochrome P450 2C19): > 10000 nM | IC50 (Cytochrome P450 1A2): > 10000 nM | fraction unbound at 4.5 h, 5 µM [10]: 0.156 | fraction unbound at 4.5 h, 5 µM [11]: 0.0869 | fraction unbound at 5 h, 5 µM [12]: 0.119 | solubility kinetic [13]: 13 µM (≈ 5.25 µg/mL) | solubility kinetic [14]: 13 µM (≈ 5.25 µg/mL) | solubility kinetic [15]: 7 µM (≈ 2.83 µg/mL) | Papp A→B at 5 µM (human MDR1 [16]): 2.5 ×10⁻⁶ cm/s | efflux ratio at 5 µM (human MDR1 [17]): 32.3 | concentration at 5 min [19]: 731 ng/mL | concentration at 5 min [20]: 363 ng/g | Kp at 5 min [21]: 0.5 | Cp(f) [22]: 63.5 ng/mL | Kp uu at 5 min [23]: 0.68
SMILES: N#Cc1ccc([C@@H]2[C@@H]3CC[C@@H](C[C@@H]3O)N2S(=O)(=O)c2ccc(Cl)cc2)cn1
IC50 [18]: > 10000 nM | IC50 (calcium channel): > 10000 nM | IC50 (sodium channel): > 10000 nM

IC50 [4]: 690 nM | IC50 [5]: 390 nM | IC50 [6]: > 10000 nM | IC50 [7]: > 10000 nM
SMILES: O=C1C[C@@H]2CC[C@H]1[C@@H](c1ccc(C(F)(F)F)nc1)N2S(=O)(=O)c1ccc(Cl)cc1 (racemic)
Ratio IC50 (Homo sapiens [1]): > 11 | Ratio IC50 (Homo sapiens [2]): > 11

IC50 [4]: 794 nM | IC50 [5]: 195 nM | IC50 [6]: > 10000 nM | IC50 [7]: > 10000 nM
SMILES: COc1ccc([C@@H]2[C@@H]3CC[C@@H](CC3=O)N2S(=O)(=O)c2ccc(Cl)cc2)cn1 (racemic)
Ratio IC50 (Homo sapiens [1]): > 5 | Ratio IC50 (Homo sapiens [2]): > 5
